The text below walks through data of ChEMBL document CHEMBL3045774, “Viridepyronone, a new antifungal 6-substituted 2H-pyran-2-one produced by Trichoderma viride” (2003).

Experiment [1] concerns Athelia rolfsii. Description: Antifungal activity against Athelia rolfsii assessed as mycelial growth inhibition at 246 ug/mL after 3 days. The format is functional, organism-based. The conditions noted are these: Agroathelia rolfsii.
Experiment [2] relates to Athelia rolfsii. The experiment in a line: Antifungal activity against Athelia rolfsii assessed as growth inhibition after 3 days. The format is functional. To be noted: Agroathelia rolfsii, 72 h.
Experiment [3] relates to Athelia rolfsii. Description: Antifungal activity against Athelia rolfsii assessed as growth inhibition at 6.9 x 10^-2 M after 3 days by paper disk assay relative to control. The format is functional. The conditions noted are these: Agroathelia rolfsii, 72 h; read-out: GI.

≈ marks a conversion by molar mass, not a printed value. Calls of active or inactive are those of the source. No cut-off for these calls is given here.

As usually defined, the MIC is the lowest concentration that inhibits growth of the organism. Regarding `CC(=O)CCCc1cccc(=O)o1` [VIRIDEPYRONONE], in the experiment with Athelia rolfsii [1], the “growth inhibition (GI)” value was “Active”. For the same molecule, the minimum inhibitory concentration (MIC) in the experiment on Athelia rolfsii [2] was determined as 196 µg/mL (≈ 1090 µM). The inhibition of growth at 69000 µM with Athelia rolfsii [3] is 48%.
